Measured values taken from patent US20230271969A1, “NITROGEN-CONTAINING FUSED RING DERIVATIVE INHIBITOR, PREPARATION METHOD THEREFOR AND USE THEREOF” (Shanghai Hansoh Biomedical Co., Ltd., priority 2020, published 2023).
Where two headings read alike, the source gives them in different places.

Assays:
[1] = test system: Senktide-induced bilateral ovariectomy rats; experiment: Tail skin temperature in a Senktide-induced bilateral ovariectomy rat model; format: in vivo; conditions: OVX SD rats, oral 30 mg/kg, 30 min before s.c. Senktide, tail skin temperature over 75 min
Source text: Pharmacodynamic Study of the Test Compounds on Tail Skin Temperature in a Senktide-Induced Bilateral Ovariectomy Rat Model
To evaluate the effect of the test compounds on tail skin temperature in Senktide-induced bilateral ovariectomy rats.
2.3. Experimental Animals • Ten-Week-old female bilateral ovariectomy SD rats were purchased from Beijing Vital River Laboratory Animal Technology Co., Ltd. The animals were housed in a SPF grade animal facility with 5 SD rats per cage. The cages, bedding, feed and water were disinfected at high temperatures before use. All animals had free access to food and water.
Ten-week-old female SD rats were subjected to bilateral ovariectomy and recovered for two weeks, and then randomly divided into negative control group, model group and drug administration group (8 rats per group), based on body weight. The probe was attached to the dorsal surface of the rat tail with medical tape, 1-2 cm away from the tailhead of the rat.
The vehicle was administered orally to the negative control group and the model group, and different test compounds were administered orally to each drug administration group at a dose of 30 mg/kg and a volume of 10 mL/kg.
Thirty minutes after the oral administration of the vehicle or test compound, the negative control group was injected subcutaneously with normal saline (at a volume of 5 mL/kg); the model group and each drug administration group were injected subcutaneously with 0.2 mg/mL of Senktide (at a volume of 5 mL/kg) to induce the hot flashes-like symptom.
The change in tail skin temperature (ΔTST) at each time point relative to time point 0 was calculated, the ΔTST-time curve of the change in tail skin temperature was plotted, and the area under curve (AUCΔTST) was calculated. ΔTST=TSTn−TST0, TST0 is the tail skin temperature at 0 minute before the subcutaneous injection of normal saline or Senktide; TSTn is the tail skin temperature at the n minute after the subcutaneous injection.
AUCΔTST=Σ(ΔTSTn+ΔTSTn+5)*5/2

NK3 receptors [2] = molecular target: T1, NK3 receptors (Homo sapiens, UniProt P29371); experiment: Antagonism of IP1 in HEK293 cells with stable expression of NK3; format: cell-based; conditions: agonist Senktide 3 nM, read-out: NK3R IC50 (nM) IP1
T1 construct: expressed in transfected cells
T1 sequence (P29371 1-465): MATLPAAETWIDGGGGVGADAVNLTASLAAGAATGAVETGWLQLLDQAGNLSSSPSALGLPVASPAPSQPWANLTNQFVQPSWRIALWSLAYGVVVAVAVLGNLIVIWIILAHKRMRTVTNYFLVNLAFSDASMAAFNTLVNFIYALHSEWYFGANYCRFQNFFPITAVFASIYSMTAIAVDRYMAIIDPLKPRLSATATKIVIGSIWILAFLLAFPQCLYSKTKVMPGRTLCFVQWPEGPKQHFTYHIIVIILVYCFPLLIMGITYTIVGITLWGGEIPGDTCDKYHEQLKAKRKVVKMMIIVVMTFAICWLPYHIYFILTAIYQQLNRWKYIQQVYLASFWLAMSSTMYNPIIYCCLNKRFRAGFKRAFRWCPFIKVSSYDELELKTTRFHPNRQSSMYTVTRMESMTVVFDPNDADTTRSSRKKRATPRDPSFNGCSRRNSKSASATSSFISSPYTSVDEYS
Description: Determination of the Effect of the Compounds of the Present Invention on IP1 in HEK293 Cells with Stable Expression of NK3
The objective of this test example was to determine the antagonism effect of the compounds on the activity of HEK293-NK3 cells.
3. Experimental Methods: • 1. […] HEK293-NK3 cell line was cultured in complete medium and seeded in the coated dishes at 37° C., 5% CO2 until 70%˜90% confluence. • 3. […] The cells were digested and resuspended in 1× Stimulation Buffer (IP-ONE Gq Kit), seeded into the 384-well cell culture plate (which contained the compound to be tested) at 5,000 cells/well/5 μL by using Multidrop Combi. The culture plate was centrifuged at 300 rpm at room temperature for 60 seconds, and then incubated at 37° C., 5% CO2 for 15 minutes. • 5. The cell culture plate was taken out from the CO2 incubator. […] The culture plate was centrifuged at 300 rpm at room temperature for 60 seconds, and then incubated at 37° C., 5% CO2 for 2 hours. • 6. The cell culture plate was taken out from the CO2 incubator. 5 μL of IP1 d2 reagent and then 5 μL of IP1 Tb Cryptate Antibody reagent were added by using Multidrop Combi. The culture plate was centrifuged at room temperature at 300 rpm for 60 seconds, and left to stand at room temperature for 1 hour. • 7. The plate was read by using EnVision Multilabel Reader, and data were collected at the same time.
The fluorescence signal ratio (Ratio) was read and collected by EnVision Multilabel Reader. According to the readings of the Low control (DMSO control) and High control (p)ositive compound) experimental groups, the antagonism percentage data were calculated as {% antagonism=(Ratio sample−Ratio low control)/(Ratio high control−Ratio low control)×100}.

NK3 receptors [3] = molecular target: T1, NK3 receptors; experiment: Calcium ion fluidity (FLIPR) in cells with stable expression of NK3 receptors; format: cell-based; conditions: calcium signal, antagonist mode, read-out: NK3R IC50 (nM) FLIPR
Source text: Determination of the Effect of the Compounds of the Present Invention on Calcium Ion Fluidity in Cells with Stable Expression of NK3 Receptors
Experimental objective: The objective of this test example was to determine the inhibitory effect of the compounds on NK3 receptors.
Experimental Methods: • 1. […] Probenecid and BSA were freshly added on the day of the experiment. The buffers for the experiments included dye buffer, compound dilution buffer and the like. • 2. […] The culture medium was discarded, and 20 μL of dye was added. The cells were incubated at 37° C. in the dark for 60 min, and then the calcium signal was read. • 4. The antagonist was prepared before the experiments. […] The plate was transferred to FLIPR, and 6× concentration of the agonist compound was added at 5 μL/well. The values were read and the data were saved by using FLIPR. The total assay volume was 30 μL, comprising 20 μL/well of dye buffer, 5 μL/well of 5× concentration of the experimental compound, and 5 μL/well of 6× concentration of the agonist compound.
The calcium signal value was read by FLIPR. The output of each sampling time point in the experiment was calculated as the ratio of the signals at wavelengths of 340/510 nm to 380/510 nm. The maximum minus minimum value was calculated from the ratio signal curve. The IC50 value of the compound was calculated by fitting the data of inhibition rate percentage and ten concentrations to the parametric nonlinear logistic equation by using GraphPad prism.

[4] = Pharmacokinetic assay in SD rats (plasma and brain tissue); format: in vivo; conditions: rat, po, male SD rats, p.o. 5 mg/kg; for AUC(0-t): read-out: Area under curve AUC0-t; for Tmax: read-out: Peak time tmax; for Cmax: read-out: Plasma concentration Cmax
Description: Test Example 4. Pharmacokinetic Assays in SD Rats
SD rats were used as test animals. The in vivo (plasma and brain tissue) pharmacokinetic behavior of the compounds of the present invention was investigated by oral administration of the compound in rats at a dose of 5 mg/kg.
Male SD rats (21 animals per group), purchased from Shanghai JieSiJie Laboratory Animal Co., Ltd., under the Animal Production License Number of SCXK (Shanghai) 2013-0006 No. 311620400001794.
The experimental drug was dissolved in 0.5% CMC-Na (1% Tween 80) by sonication to formulate a clear solution or a homogeneous suspension.
After an overnight fast, male SD rats (21 animals per group) were administered p.o. with the experimental drug at an administration dose of 5 mg/kg and the administration volume of 10 mL/kg.
Rats were sacrificed with CO2 at 0, 0.5, 1, 2, 4, 8 and 24 hours before and after the drug administration. 8 mL of blood was collected by cardiac puncture, placed in EDTA-K2 tubes, and centrifuged at 4° C. at 6,000 rpm for 6 min. Plasma was separated and stored at −80° C. The whole brain tissue was dissected and weighed, and then placed in a 2 mL centrifuge tube and stored at −80° C.
2.6 Sample Processing: • 1) 160 μL of acetonitrile was added to 40 μL of plasma sample for precipitation. After mixing, the sample was centrifuged at 3500×g for 5-20 minutes. • 2) 90 μL of acetonitrile containing internal standard (100 ng/mL) was added to 30 μL of plasma or brain homogenate sample for precipitation. After mixing, the sample was centrifuged at 13,000 rpm for 8 minutes. • 3) 70 μL of water was added to 70 μL of treated supernatant, and mixed by vortex for 10 minutes. Then 20 μL of the sample was analyzed by LC/MS/MS to determine the concentration of the compound to be tested. The LC/MS/MS instrument for analysis was AB Sciex API 4000 Qtrap.
2.7 Liquid Chromatography Analysis: • Liquid chromatography conditions: Shimadzu LC-20AD pump • Chromatographic column: Agilent ZORBAX XDB-C18 (50×2.1 mm, 3.5 μm) Mobile phase: Eluent A was 0.1% formic acid in water, and Eluent B was acetonitrile. • Flow rate: 0.4 mL/min • Elution time: 0-4.0 minutes, the eluate was as follows:
The major pharmacokinetic parameters were calculated by using WinNonlin 6.1, and the results of the pharmacokinetic experiments in rats were shown in Table 3 below: […]

SMILES	AUCΔTST [1] [°C · min]	IC50 (NK3 receptors [2]) [nM]	IC50 (NK3 receptors [3]) [nM]	AUC(0-t) ([4]; Brain) [ng·h/mL]	Tmax ([4]; Brain) [h]	Cmax ([4]; Brain) [ng/mL]	AUC(0-t) ([4]; Plasma) [ng·h/mL]	Tmax ([4]; Plasma) [h]	Cmax ([4]; Plasma) [ng/mL]	half-life ([4]; Plasma, read-out: Half life t1/2 (converted)) [h]	MRT ([4]; Plasma, read-out: Mean residence time MRT) [h]
[2H]c1c([2H])c(C(=O)N2CCn3c(-c4nc5ccccc5s4)nnc3[C@H]2C)c([2H])c([2H])c1F [Example 2, (R)-(3-(Benzo[d]thiazol-2-yl)-8-methyl-5,6-dihydro-[1,2,4]triazolo[4,3-a]pyrazin-7 (8H)-yl)(4-fluorophenyl-2,3,5,6-d4)methanone]	71.3 ± 25.5	171	58.2								
C[C@@H]1c2nnc(-c3nc4ccccc4s3)n2CCN1C(=O)c1ccc(Cl)cc1 [Example 3, (R)-(3-(Benzo[d]thiazol-2-yl)-8-methyl-5,6-dihydro-[1,2,4]triazolo[4,3-a]pyrazin-7 (8H)-yl)(4-chlorophenyl)methanone]	81.3 ± 37.4	68.7	30.5								
C[C@@H]1c2nnc(-c3nc4cc(F)c(F)cc4s3)n2CCN1C(=O)c1ccc(F)cc1 [Example 17, (R)-(3-(5,6-Difluorobenzo[d]thiazol-2-yl)-8-methyl-5,6-dihydro-[1,2,4]triazolo[4,3-a]pyrazin-7(8H)-yl)(4-fluorophenyl)methanone]		15.2	6.81	3230	4	1120	46700	6	2300		
C[C@@H]1c2nnc(-c3nc(Cl)ns3)n2CCN1C(=O)c1ccc(Cl)cc1 [Example 57, (R)-(3-(3-Chloro-1,2,4-thiadiazol-5-yl)-8-methyl-5,6-dihydro-[1,2,4]triazolo[4,3-a]pyrazin-7(8H)-yl)(4-chlorophenyl)methanone]		28.9	61	2340	1	670	7130	2	930	3.2	4.8
[2H]c1cc(C(=O)N2CCn3c(-c4nc5cc(Cl)c(F)cc5s4)nnc3[C@H]2C)ccc1F [Example 105, (R)-(3-(5-Chloro-6-fluorobenzo[d]thiazol-2-yl)-8-methyl-5,6-dihydro-[1,2,4]triazolo[4,3-a]pyrazin-7(8H)-yl)(4-fluorophenyl-3-d)methanone]		108	268								
[2H]C([2H])([2H])N(c1nsc(-c2nnc3n2CCN(C(=O)c2ccc(Cl)cc2)[C@@H]3C)n1)C([2H])([2H])[2H] [Example 107, (R)-(3-(3-(Bis(methyl-d3)amino)-1,2,4-thiadiazol-5-yl)-8-methyl-5,6-dihydro-[1,2,4]triazolo[4,3-a]pyrazin-7(8H)-yl)(4-chlorophenyl)methanone]		80.5	184								
Cc1nsc(-c2nnc3n2CCN(C(=O)c2ccc(F)cc2)[C@@H]3C)n1 [Fezolinetant]	116.7 ± 50.6		904								
